Experimental data taken from US6489341B1 (Sepracor Inc., priority 1999, dated 2002).
pIC50, pKi: −log10 of the molar value. Read-outs that look alike come from different tables or passages of the source.

Experiments:
[1] = target: T1, human recombinant dopamine D4 receptor (Homo sapiens, UniProt P21917); assay: Binding affinity at dopamine D4 receptor; conditions: for pKi: calculated inhibition constant, in parentheses; for pIC50: concentration required to inhibit 50% specific binding
T1 construct: expressed in transfected cells
T1 sequence (P21917 1-419): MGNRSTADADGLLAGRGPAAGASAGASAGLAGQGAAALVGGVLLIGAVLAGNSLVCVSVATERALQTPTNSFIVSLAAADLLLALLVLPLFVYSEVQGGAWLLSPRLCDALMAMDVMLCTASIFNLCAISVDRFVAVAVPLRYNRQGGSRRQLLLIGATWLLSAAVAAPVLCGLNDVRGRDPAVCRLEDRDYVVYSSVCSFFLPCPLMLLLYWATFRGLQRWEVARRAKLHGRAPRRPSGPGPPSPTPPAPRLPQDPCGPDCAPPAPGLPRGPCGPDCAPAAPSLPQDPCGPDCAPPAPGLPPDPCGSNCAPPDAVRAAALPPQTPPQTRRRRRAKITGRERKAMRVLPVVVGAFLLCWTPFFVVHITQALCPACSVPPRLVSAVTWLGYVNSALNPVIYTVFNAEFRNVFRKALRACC

[2] = target: T2, human recombinant serotonin 5-HT2A receptor (Homo sapiens, UniProt P28223); assay: Binding affinity at serotonin 5-HT2A receptor; conditions: for selectivity for 5-HT2A receptors versus D2 receptors (in words): conclusion from Table 1; for 5-HT2A Selectivity (D2/5-HT2A): ratio of D2 to 5-HT2A IC50
T2 construct: expressed in transfected cells

[3] = target: T3, human recombinant dopamine D2 receptor (Homo sapiens, UniProt P14416); assay: Binding affinity at dopamine D2 receptor; conditions: for pKi: calculated inhibition constant, in parentheses; for pIC50: concentration required to inhibit 50% specific binding
T3 construct: expressed in transfected cells

[4] = target: non-selective α1 receptor from rat cerebral cortex; assay: Binding affinity at non-selective α1 receptor; conditions: for pKi: calculated inhibition constant, in parentheses; for pIC50: concentration required to inhibit 50% specific binding
[5] = calculated inhibition constant, in parentheses, human recombinant, read-out: Ki by Receptor 5-HT2A
[6] = concentration required to inhibit 50% specific binding, human recombinant, read-out: IC50 by Receptor 5-HT2A

T3 sequence (P14416 whole entry): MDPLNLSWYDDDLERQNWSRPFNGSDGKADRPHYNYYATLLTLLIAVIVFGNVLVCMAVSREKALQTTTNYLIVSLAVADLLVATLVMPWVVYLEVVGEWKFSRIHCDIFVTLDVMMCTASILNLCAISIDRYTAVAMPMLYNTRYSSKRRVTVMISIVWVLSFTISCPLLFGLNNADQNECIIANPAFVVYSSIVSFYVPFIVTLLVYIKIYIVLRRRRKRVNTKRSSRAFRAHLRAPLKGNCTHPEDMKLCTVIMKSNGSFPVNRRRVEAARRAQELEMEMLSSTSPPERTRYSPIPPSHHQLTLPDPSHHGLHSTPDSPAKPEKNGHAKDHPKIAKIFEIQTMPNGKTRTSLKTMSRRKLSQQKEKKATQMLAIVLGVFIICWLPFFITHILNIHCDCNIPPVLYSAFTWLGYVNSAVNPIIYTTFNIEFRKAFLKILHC
T2 sequence (P28223 whole entry): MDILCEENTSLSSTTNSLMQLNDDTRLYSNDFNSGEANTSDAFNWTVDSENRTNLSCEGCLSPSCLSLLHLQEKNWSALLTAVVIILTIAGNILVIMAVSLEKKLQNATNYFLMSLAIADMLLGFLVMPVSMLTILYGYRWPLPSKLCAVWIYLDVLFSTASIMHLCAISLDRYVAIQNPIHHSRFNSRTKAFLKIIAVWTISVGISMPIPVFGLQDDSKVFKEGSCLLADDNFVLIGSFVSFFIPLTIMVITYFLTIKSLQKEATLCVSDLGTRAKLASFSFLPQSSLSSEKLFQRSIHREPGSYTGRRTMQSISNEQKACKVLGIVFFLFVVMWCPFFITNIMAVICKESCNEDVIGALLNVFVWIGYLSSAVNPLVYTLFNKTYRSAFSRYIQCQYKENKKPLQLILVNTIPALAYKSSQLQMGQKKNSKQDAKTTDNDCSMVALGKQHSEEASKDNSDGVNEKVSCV

Compound | pKi [1] | pIC50 [1] | pKi [2, 5] | pIC50 [2, 6] | selectivity for 5-HT2A receptors versus D2 receptors (in words) [2] | 5-HT2A Selectivity (D2/5-HT2A) [2] | pKi [3] | pIC50 [3] | pKi [4] | pIC50 [4] | pIC50 [2] | pKi [2]
Fc1ccc(-n2cc(C3=CCNCC3)c3cc(Cl)ccc32)cc1 [Nor, 5-chloro-1-(4-fluorophenyl)-3-(1,2,3 6-tetrahydropvridin-4-yl)indole] | 6.48 | 5.96 | 7.96 | 7.77 | greater selectivity for 5-HT2A receptors than for D2 receptors | 4.6 | 7.70 | 7.11 | 7.89 | 7.31 |  | 
O=C1CNC(=O)N1CCN1CCC(c2cn(-c3ccc(F)cc3)c3ccc(Cl)cc23)CC1 [5-Oxo, 1-[2-[4-[5-chloro-1-(4-fluorophenyl)-1H-indol-3-yl]piperidin-1-yl]ethyl]midazolidin-2,5-dione] | 7.02 | 6.50 | 7.96 | 7.74 | greater selectivity for 5-HT2A receptors than for D2 receptors | 2.4 | 7.96 | 7.36 | 8.48 | 7.92 |  | 
COc1cc2nc(N3CCN(C(=O)c4ccco4)CC3)nc(N)c2cc1OC [Prazosin, reference compound] |  |  |  |  |  |  |  |  | 10.06 | 9.49 |  | 
O=C1NCCN1CCN1CCC(c2cn(-c3ccc(F)cc3)c3ccc(Cl)cc23)CC1 [Sertindole, 1-[2-[4-[5-chloro-1-(4-fluorophenyl)-1H-indol-3-yl]-1-piperidinyl]ethyl]-2-imidazolidinone, reference compound] |  |  |  |  |  |  |  |  | 8.77 | 8.21 |  | 
Fc1ccc(-n2cc(C3=CCNCC3)c3cc(Cl)ccc32)cc1 [Dehydro-Nor] | 6.94 | 6.42 |  |  |  | 1.4 | 8.06 | 7.47 | 7.55 | 6.99 | 7.60 | 7.80
